In patent publication US11147803B2, “Dementia therapeutic agent combining pyrazoloquinoline derivative and memantine” (Eisai R&D Management Co., Ltd., priority 2017, dated 2021):

System: rats with scopolamine-induced cognitive impairment
Assay: Novel object recognition test using rats with scopolamine-induced cognitive impairment
Type: in vivo, rat (Long Evans)
Details: for percentage of exploration of the novel object in T2: scopolamine 0.7 mg/kg s.c., mean±standard error
Source text: [Test Example 1] Novel Object Recognition Test Using Rats with Scopolamine-Induced Cognitive Impairment
Acetylcholine nervous system disorder has been reported in Alzheimer's disease (Whitehouse et al., Science, 1982, vol. 215, p. 1237), and scopolamine-administered animals are utilizable as an animal model for Alzheimer's disease. Scopolamine is a muscarine receptor inhibitor which blocks acetylcholine nervous system transmission.
6-week-old male Long Evans rats (Institute for Animal Reproduction) were subjected to the test. A habituation process to the experimental procedure was carried out once per day for 2 days prior to the test. In the habituation process, a vehicle was administered to the rats, and then the rats were placed in an empty test apparatus (40 cm×30 cm×45 cm height) and allowed to explore for 3 minutes, and after then placed in a waiting chamber (13 cm×30 cm×45 cm height) for about 1 minute, they were returned to the empty test apparatus again and left for 5 minutes.
An acquisition trial (T1) was carried out on the day of the test. Compound (I) was orally administered 2 hours before T1. Memantine hydrochloride was orally administered 1 hour before T1. Scopolamine (Wako Pure Chemical Industries, Ltd.) was subcutaneously administered 30 minutes before T1 at a dose of 0.7 mg/kg. In T1, the rats were habituated to the empty test apparatus for 3 minutes and then placed in the waiting chamber. After setting two identical objects in the test apparatus, the rats were returned into the test apparatus again and allowed to freely explore the two identical objects for 5 minutes. The rats were then returned into their rearing cages. After 2 hours, a retention trial (T2) was carried out. The rats were placed in the empty test apparatus for 3 minutes for habituation, and were then transferred into the waiting chamber. After setting an object used in T1 (“familiar” object) and an object not used in T1 (“novel” object) in the test apparatus, the rats were again returned into the test apparatus and allowed to freely explore these objects for 3 minutes. The objects were wiped with a wet wipe impregnated with ethanol after each experiment so as to leave no trace of odor. The behaviors of the rats during T1 and T2 were recorded by a digital video camera, and the total exploration time for each object was manually measured using a stopwatch. Exploratory behavior was defined as the behavior in which the rat brings its nose within 2 cm of the object and directs its nose toward the object.
In the novel object recognition test, the percentage of exploration of the novel object in T2 is considered to be an index for amnesia, reflecting discrimination between the familiar object and the novel object. The percentage of exploration of the novel object was calculated by the following formula. The percentage of exploration of the novel object (%)=N/(N+F)×100 F: time spent in exploring the familiar object N: time spent in exploring the novel object
Rats whose total time spent in exploring the objects during T1 or T2 was 10 seconds or less or rats whose percentage of the time spent in exploring either of the objects during T1 was not less than 70% or not more than 30% of the total exploration time were excluded from the data analysis.
The results were expressed as mean±standard error. The difference between the normal control group untreated with scopolamine and the disease control group treated with scopolamine was analyzed by an unpaired t-test (significant difference: *). The difference between the disease control group and the single drug-treated group was analyzed by Dunnett-type multiple comparison test (significant difference: #). The difference between the combined treatment group and the single drug-treated group was analyzed by an unpaired t-test (significant difference: ※). A value of p<0.05 was judged to be a statistically significant difference. Statistical analysis was conducted using GraphPad Prism version 5.04 or 6.02.

SMILES: COc1ncc(C)c(-c2ccc3c(c2)[nH]c(=O)c2cnn([C@H]4CCOC4)c23)c1C [Compound (I), (S)-7-(2-methoxy-3,5-dimethylpyridin-4-yl)-1-(tetrahydrofuran-3-yl)-1H-pyrazolo[4,3-c]quinoline-4(5H)-one]
- percentage of exploration of the novel object in T2 (Compound (I) 0.3 mg/kg orally 2 hours before T1): 58.7 ± 3.2%
- percentage of exploration of the novel object in T2 (Compound (I) 1 mg/kg orally 2 hours before T1): 59.9 ± 3.4%
- percentage of exploration of the novel object in T2 (Compound (I) 3.3 mg/kg orally 2 hours before T1, # significant vs disease control): 68.5 ± 2.0# %
- percentage of exploration of the novel object in T2 (Compound (I) 10 mg/kg orally 2 hours before T1, # significant vs disease control): 68.5 ± 1.6# %
- ameliorative effect on the percentage of exploration of the novel object (significance vs disease control) (compound (I) 1 mg/kg (Table 1)): did not exhibit a significant effect
- ameliorative effect on the percentage of exploration of the novel object (significance vs disease control) (compound (I) 3.3 mg/kg (Table 2)): significant ameliorative effect

SMILES: CC12CC3CC(C)(C1)CC(N)(C3)C2 [Memantine, memantine]
- percentage of exploration of the novel object in T2 (Memantine 1 mg/kg orally 1 hour before T1): 58.1 ± 2.4%
- percentage of exploration of the novel object in T2 (Memantine 3 mg/kg orally 1 hour before T1, # significant vs disease control): 68.9 ± 4.0# %
- percentage of exploration of the novel object in T2 (Memantine 10 mg/kg orally 1 hour before T1): 59.9 ± 3.8%
- ameliorative effect on the percentage of exploration of the novel object (significance vs disease control) (memantine hydrochloride 1 mg/kg alone (Table 4)): no significant ameliorative effect
- ameliorative effect on the percentage of exploration of the novel object (significance vs disease control) (memantine hydrochloride 3 mg/kg (Table 3)): significant ameliorative effect
